From article PMC7180456, “Multitarget Anticancer Agents Based on Histone Deacetylase and Protein Kinase CK2 Inhibitors” (Molecules, 2020)
Where two headings read alike, the source gives them in different places.

Legend:
[1] = tested on: CK2; conditions: Figure 1; read-out: IC50 of representative CK2 inhibitors; cited from earlier work
[2] = target: T1, human recombinant HDAC1 (Homo sapiens, UniProt Q13547); experiment: HDAC1 inhibition, fluorometric method (Enzo Fluorometric Drug Discovery Assay Kit); format: biochemical; conditions: read-out: Inhibitory activity IC50 on HDAC1
T1 construct: purchased Enzo Life Sciences, Inc
Description: The inhibitory activities of the synthesized compounds were determined against CK2 and HDAC1 and the IC50 values are collected in Table 1. The activity towards human recombinant HDAC1 was tested using a fluorometric method. CK2 inhibitory activity was determined by a radiometric method, using a short peptide ([…]) as a substrate.
(§1) 15 µL of HDAC1 (0.4 µg/well) or HDAC6 (0.5 µg/well) were incubated at 37 °C for 30 minutes with 10 µL of inhibitor diluted in 5% DMSO and 25 µL of fluorogenic substrate (0.05 µL/well of 5 mM solution). Reactions were stopped with the developer and trichostatin A, diluted in buffer without BSA, and the plate was incubated at 30 °C for 45 min, followed by measuring the fluorescence (Ex. 360 nm, Em. 450 nm, Fluoroskan, Thermo Scientific).

[3] = target: T2, human recombinant CK2α (Homo sapiens, UniProt P68400); experiment: CK2 inhibition, radiometric method with peptide substrate […]; format: biochemical; conditions: for fold less active in CK2 (than in HDAC1): CK2 IC50 versus HDAC1 IC50; for IC50: radiometric method, 20 µM ATP, read-out: Inhibitory activity IC50 on CK2
T2 construct: GST; made in house; host or cells: bacteria
Description: The activity towards human recombinant HDAC1 was tested using a fluorometric method. CK2 inhibitory activity was determined by a radiometric method, using a short peptide ([…]) as a substrate.
Recombinant human protein kinase GST-CK2 was produced in bacteria and purified as described elsewhere. […] The reaction buffer contained 20 µM [γ-32P] ATP (specific radioactivity 300–1000 cpm/pmol), 15 mM Mg^2+, 20 mM Tris–HCl pH 7.5, and 6 mM 2-mercaptoethanol. 10 µL of the assay mixture was spotted onto a square (1 cm/1 cm) of Whatman P81 paper and allowed to dry. Each square was immersed in cold 0.5% phosphoric acid, and washed three times during 10 min, allowed to dry and transferred into a vessel containing Opti-Phase liquid (scintillation solution) and radioactivity was quantified using a scintillation counter (MicroBeta, Perkin Elmer) by Cerenkov counting. All experiments were performed in triplicate. IC50 values were calculated using GraphPad Prism (version 4.0) software.

[4] = target: T3, HDAC6 (Homo sapiens, UniProt Q9UBN7); experiment: HDAC6 inhibition, fluorometric method (Enzo Fluorometric Drug Discovery Assay Kit); format: biochemical; conditions: read-out: Inhibitory activity IC50 on HDAC6
T3 construct: purchased Enzo Life Sciences, Inc
T3 sequence (Q9UBN7 1-1215): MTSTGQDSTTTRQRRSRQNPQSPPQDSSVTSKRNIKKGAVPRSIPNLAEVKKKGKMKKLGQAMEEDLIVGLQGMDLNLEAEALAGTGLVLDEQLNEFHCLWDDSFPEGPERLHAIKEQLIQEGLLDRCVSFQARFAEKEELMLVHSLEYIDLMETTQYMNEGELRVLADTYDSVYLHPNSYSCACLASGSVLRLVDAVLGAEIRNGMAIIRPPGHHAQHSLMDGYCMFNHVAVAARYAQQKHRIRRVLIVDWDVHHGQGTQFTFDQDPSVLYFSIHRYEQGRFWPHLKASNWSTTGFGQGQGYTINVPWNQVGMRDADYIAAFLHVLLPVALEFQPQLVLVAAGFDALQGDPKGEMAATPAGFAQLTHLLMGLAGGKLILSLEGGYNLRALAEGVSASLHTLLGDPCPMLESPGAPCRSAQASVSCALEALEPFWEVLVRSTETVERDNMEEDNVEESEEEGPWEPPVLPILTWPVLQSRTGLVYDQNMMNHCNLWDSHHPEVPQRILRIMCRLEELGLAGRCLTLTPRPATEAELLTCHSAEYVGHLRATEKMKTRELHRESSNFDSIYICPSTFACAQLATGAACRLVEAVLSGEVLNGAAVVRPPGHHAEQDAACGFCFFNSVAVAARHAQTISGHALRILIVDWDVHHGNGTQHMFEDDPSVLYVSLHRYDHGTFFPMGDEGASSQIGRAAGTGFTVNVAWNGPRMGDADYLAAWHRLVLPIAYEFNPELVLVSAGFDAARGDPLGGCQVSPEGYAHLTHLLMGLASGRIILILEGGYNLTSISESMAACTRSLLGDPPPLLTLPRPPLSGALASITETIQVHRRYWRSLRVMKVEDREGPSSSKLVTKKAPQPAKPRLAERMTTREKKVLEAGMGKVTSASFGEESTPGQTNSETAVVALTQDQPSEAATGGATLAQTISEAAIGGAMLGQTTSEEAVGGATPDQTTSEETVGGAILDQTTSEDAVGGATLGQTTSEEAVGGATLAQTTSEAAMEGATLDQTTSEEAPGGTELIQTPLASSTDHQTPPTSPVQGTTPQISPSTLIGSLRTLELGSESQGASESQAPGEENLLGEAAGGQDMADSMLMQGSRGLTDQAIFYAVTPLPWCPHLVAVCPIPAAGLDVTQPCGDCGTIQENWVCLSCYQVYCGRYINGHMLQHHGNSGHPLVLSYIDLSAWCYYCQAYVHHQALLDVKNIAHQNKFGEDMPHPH
Description: For this reason, we analyzed the activity of 15 and 19, together with other compounds from the alkyl and triazole series in HDAC6, tested using a fluorometric method (Table 1).
as §1

[5] = tested on: Jurkat T-leukemia cells; experiment: Cytotoxicity, trypan blue exclusion assay, 24 h; conditions: Homo sapiens
[6] = tested on: HL-60/adr (doxorubicin-resistant, MRP-1 overexpression); experiment: Cytotoxicity, trypan blue exclusion assay, 24 h; format: cell-based; conditions: Homo sapiens, HL60/ADR
Excerpt: (§2) Taking into consideration the high abundance of CK2 kinase in leukemia and lymphomas, the ability of selected CK2-HDAC dual inhibitors to circumvent MDR was investigated in human leukemia cells of HL-60 line and its doxorubicin-resistant (HL-60/adr, MRP-1 overexpression) and vincristine-resistant (HL-60/vinc, P-gp overexpression) sublines.
(§3) Statistical significance was set at P ≤ 0.05.

[7] = tested on: HL-60/vinc (vincristine-resistant, P-gp overexpression); experiment: Cytotoxicity, trypan blue exclusion assay, 24 h; format: cell-based; conditions: for CC50: Homo sapiens, HL60/vinc
Excerpt: as §2, §3

[8] = tested on: leukemia cells of HL-60 line; experiment: Cytotoxicity, trypan blue exclusion assay, 24 h; format: cell-based; conditions: Homo sapiens
Excerpt: as §2, §3

[9] = tested on: HCT-116 colon carcinoma cells; experiment: Cytotoxicity, trypan blue exclusion assay, 24 h; conditions: Homo sapiens
[10] = tested on: human tumor and pseudonormal cell lines; experiment: Cytotoxicity, trypan blue assay, range over the cell lines tested; format: cell-based; conditions: 24 h, read-out: LC50 range depending on cell line
Excerpt: as §3

[11] = tested on: breast adenocarcinoma cells of MCF-7 line; experiment: Cytotoxicity, trypan blue exclusion assay, 24 h; conditions: Homo sapiens
[12] = Cytotoxicity, trypan blue exclusion assay, 24 h (pseudonormal cells); conditions: human, HEK293 embryonic kidney cells (pseudonormal)
[13] = tested on: HL-60/wt cells; experiment: Depolarization of mitochondria, JC-1 assay, FACS; format: cell-based, human; conditions: 24 h
[14] = 24 h, read-out: LC50 Values of Compounds for Cell Line, Jurkat
[15] = read-out: LC50 values of compounds for cell line, Jurkat
[16] = Table 2, trypan blue, 24 h, M ± SD, read-out: LC50 Values of Compounds for Cell Line, HL-60/adr
[17] = supplement Table 4S, M±SD, read-out: LC50 values of compounds for cell line, HL-60/adr
[18] = Table 2, trypan blue, 24 h, M ± SD, read-out: LC50 Values of Compounds for Cell Line, HL-60/vinc
[19] = supplement Table 4S, M±SD, read-out: LC50 values of compounds for cell line, HL-60/vinc
[20] = Table 2, trypan blue, 24 h, M ± SD, read-out: LC50 Values of Compounds for Cell Line, HL-60
[21] = supplement Table 4S, M±SD, read-out: LC50 values of compounds for cell line, HL-60
[22] = HCT-116, 24 h, read-out: LC50 Values of Compounds for Cell Line, HCT-116
[23] = HCT-116, read-out: LC50 values of compounds for cell line, HCT-116
[24] = MCF7, 24 h, read-out: LC50 Values of Compounds for Cell Line, MCF-7
[25] = MCF7, read-out: LC50 values of compounds for cell line, MCF-7
[26] = LC50 Values of Compounds for Cell Line, HEK293, Table 2, trypan blue, 24 h, M ± SD
[27] = LC50 values of compounds for cell line, HEK293, supplement Table 4S, M±SD

T2 sequence (P68400 whole entry): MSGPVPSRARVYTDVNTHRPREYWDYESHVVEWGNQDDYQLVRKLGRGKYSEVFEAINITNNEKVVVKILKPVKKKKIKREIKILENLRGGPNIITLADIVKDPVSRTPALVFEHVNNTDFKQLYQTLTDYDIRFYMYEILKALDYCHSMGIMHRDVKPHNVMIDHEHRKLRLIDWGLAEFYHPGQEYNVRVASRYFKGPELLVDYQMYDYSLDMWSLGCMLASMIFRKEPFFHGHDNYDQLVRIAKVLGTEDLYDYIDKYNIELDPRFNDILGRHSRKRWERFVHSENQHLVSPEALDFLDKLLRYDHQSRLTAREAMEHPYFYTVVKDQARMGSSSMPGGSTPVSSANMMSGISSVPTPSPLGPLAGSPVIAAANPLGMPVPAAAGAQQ
T1 sequence (Q13547 whole entry): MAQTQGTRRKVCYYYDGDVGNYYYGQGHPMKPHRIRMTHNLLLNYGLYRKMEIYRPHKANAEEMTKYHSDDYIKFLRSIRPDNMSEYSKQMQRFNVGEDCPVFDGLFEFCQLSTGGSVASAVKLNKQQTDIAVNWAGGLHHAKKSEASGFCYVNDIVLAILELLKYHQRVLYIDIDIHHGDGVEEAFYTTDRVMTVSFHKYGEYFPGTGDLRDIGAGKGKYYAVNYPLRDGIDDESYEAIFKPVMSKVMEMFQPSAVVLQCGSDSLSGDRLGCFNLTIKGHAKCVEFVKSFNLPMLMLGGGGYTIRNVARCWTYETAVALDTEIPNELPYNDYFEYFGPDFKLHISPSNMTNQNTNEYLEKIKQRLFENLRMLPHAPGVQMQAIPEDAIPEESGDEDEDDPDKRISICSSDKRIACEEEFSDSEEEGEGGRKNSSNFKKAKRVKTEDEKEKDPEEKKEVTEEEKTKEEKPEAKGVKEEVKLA

CN(C)c1nc2c(Br)c(Br)c(Br)c(Br)c2n1Cc1cn(CCCC(=O)NO)nn1 [Compound 7a, N-Hydroxy-4-(4-((4,5,6,7-tetrabromo-2-(dimethylamino)-1H-benzo[d]imidazol-1-yl)methyl)-1H-1,2,3-triazol-1-yl)butanamide]
IC50 [2]: 1.43 µM | fold less active in CK2 (than in HDAC1) [3]: 60 fold | IC50 [3]: 85.1 µM

CN(C)c1nc2c(Br)c(Br)c(Br)c(Br)c2n1Cc1cn(CCCCC(=O)NO)nn1 [Compound 7b, N-Hydroxy-5-(4-((4,5,6,7-tetrabromo-2-(dimethylamino)-1H-benzo[d]imidazol-1-yl)methyl)-1H-1,2,3-triazol-1-yl)pentanamide]
IC50 [2]: 2.25 µM | fold less active in CK2 (than in HDAC1) [3]: 22 fold | IC50 [3]: 50.1 µM | IC50 [4]: 2.41 µM

CN(C)c1nc2c(Br)c(Br)c(Br)c(Br)c2n1CCc1cn(CCCC(=O)NO)nn1 [Compound 7d, N-Hydroxy-4-(4-(2-(4,5,6,7-tetrabromo-2-(dimethylamino)-1H-benzo[d]imidazol-1-yl)ethyl)-1H-1,2,3-triazol-1-yl)butanamide]
IC50 [2]: 10.2 µM | IC50 [3]: 53.8 µM

CN(C)c1nc2c(Br)c(Br)c(Br)c(Br)c2n1CCCCC(=O)NO [Compound 11a, N-Hydroxy-5-(4,5,6,7-tetrabromo-2-(dimethylamino)-1H-benzo[d]imidazol-1-yl)pentanamide]
IC50 [2]: 62 µM | IC50 [3]: 34.2 µM

CN(C)c1nc2c(Br)c(Br)c(Br)c(Br)c2n1CCCCCC(=O)NO [Compound 11b, N-Hydroxy-6-(4,5,6,7-tetrabromo-2-(dimethylamino)-1H-benzo[d]imidazol-1-yl)hexanamide]
CC50 [5, 14]: 10.2 ± 1.43 µM | CC50 [5, 15]: 10 µM | CC50 [6, 16]: 16.2 ± 1.68 µM | CC50 [6, 17]: 10.6 µM | CC50 [7, 18]: 16.8 ± 3.34 µM | CC50 [7, 19]: 12.7 µM | CC50 [8, 20]: 7.67 ± 1.17 µM | CC50 [8, 21]: 6.59 µM | CC50 [9, 22]: 4.22 ± 0.46 µM | CC50 [9, 23]: 1.9 µM | CC50 [10]: 4 to 23 µM | IC50 [2]: 1.46 µM | CC50 [11, 24]: 15.7 ± 2.54 µM | CC50 [11, 25]: 9.97 µM | CC50 at 24 h [12, 26]: 23.3 ± 4.38 µM | CC50 at 24 h [12, 27]: 13.6 µM | depolarization of mitochondria ([13]; 10 µM): 14.55% | depolarization of mitochondria ([13]; 30 µM): 34.06% | IC50 [4]: 0.66 µM

CN(C)c1nc2c(Br)c(Br)c(Br)c(Br)c2n1CCCCCCC(=O)NO [Compound 11c, N-Hydroxy-7-(4,5,6,7-tetrabromo-2-(dimethylamino)-1H-benzo[d]imidazol-1-yl)heptanamide]
CC50 [5, 14]: 9.47 ± 1.1 µM | CC50 [5, 15]: 5.63 µM | CC50 [6, 16]: 10.6 ± 1.53 µM | CC50 [6, 17]: 8.4 µM | CC50 [7, 18]: 12.1 ± 3.27 µM | CC50 [7, 19]: 2.49 µM | CC50 [8, 20]: 6.59 ± 0.96 µM | CC50 [8, 21]: 4.69 µM | CC50 [9, 22]: 1.9 ± 0.24 µM | CC50 [9, 23]: 3.1 µM | CC50 [10]: 1.9 to 13.6 µM | IC50 [2]: 1.77 µM | fold difference in the CK2 inhibitory activity compared to 11b ([3]; compared to 11b): 4.5 fold | IC50 [3]: 16.6 µM | CC50 [11, 24]: 9.97 ± 0.99 µM | CC50 [11, 25]: 9.02 µM | CC50 at 24 h [12, 26]: 13.6 ± 0.8 µM | CC50 at 24 h [12, 27]: 8.41 µM | depolarization of mitochondria ([13]; 10 µM): 34.73% | depolarization of mitochondria ([13]; 30 µM): 49.98% | IC50 [4]: 1.13 µM

CN(C)c1nc2c(Br)c(Br)c(Br)c(Br)c2n1CCCCCCCC(=O)NO [Compound 11d, N-Hydroxy-8-(4,5,6,7-tetrabromo-2-(dimethylamino)-1H-benzo[d]imidazol-1-yl)octanamide]
CC50 [5, 14]: 5.3 ± 0.75 µM | CC50 [5, 15]: 14.2 µM | CC50 [6, 16]: 8.4 ± 1.21 µM | CC50 [6, 17]: 15.1 µM | change of activity towards P-gp overexpressing HL-60/vinc cells versus HL-60/wt ([7]; 24 h): increased twofold | CC50 [7, 18]: 2.32 ± 1.06 µM | CC50 [7, 19]: > 30 µM | CC50 [8, 20]: 4.69 ± 0.54 µM | CC50 [8, 21]: 29.7 µM | CC50 [9, 22]: 3.1 ± 0.37 µM | CC50 [9, 23]: 16.9 µM | CC50 [10]: 3 to 8 µM | IC50 [2]: 13.7 µM | CC50 [11, 24]: 9.02 ± 0.9 µM | CC50 [11, 25]: 27.8 µM | CC50 at 24 h [12, 26]: 8.41 ± 1.26 µM | CC50 at 24 h [12, 27]: > 30 µM | level of depolarized mitochondria ([13]; dose not stated in the sentence (10 µM and 30 µM tested)): 53.23% | IC50 [4]: 8.98 µM

O=C(NO)c1ccc(Cn2nnc3c(Br)c(Br)c(Br)c(Br)c32)cc1 [Compound 15b, N-Hydroxy-4-((tetrabromo-1H-benzo[d][1,2,3]triazol-1-yl)methyl)benzamide]
IC50 [2]: 4.22 µM | IC50 [3]: 136 µM | IC50 [4]: 2.7 µM

O=c1oc2c(O)c(O)cc3c(=O)oc4c(O)c(O)cc1c4c23 [Ellagic acid]
IC50 [1]: 0.04 µM

O=c1c(O)c(-c2ccc(O)c(O)c2)oc2cc(O)ccc12 [Fisetin]
IC50 [1]: 0.35 µM
